In PubChem BioAssay (NCI):
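How tested: cells in 96-well plates exposed to compound for 48 hours at five concentrations. Abbreviation: GI50, concentration required for 50% inhibition of growth. TGI denotes the concentration required for complete inhibition of growth.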

What was measured:
Experiment in all cases: NCI anticancer screen, dose series, 48 h
[1] = system: 786-0 renal
[2] = system: CCRF-CEM leukemia
[3] = system: HT29 colon
[4] = system: MALME-3M melanoma
[5] = system: NCI-H226 lung
[6] = system: OVCAR-5 ovarian
[7] = system: PC-3 prostate
[8] = system: SK-MEL-2 melanoma
[9] = system: SK-OV-3 ovarian
[10] = system: UACC-62 melanoma

Row | Compound | GI50 [1] [µM] | TGI [1] [µM] | GI50 [2] [µM] | TGI [2] [µM] | GI50 [3] [µM] | TGI [3] [µM] | GI50 [4] [µM] | TGI [4] [µM] | GI50 [5] [µM] | TGI [5] [µM] | GI50 [6] [µM] | TGI [6] [µM] | GI50 [7] [µM] | TGI [7] [µM] | GI50 [8] [µM] | TGI [8] [µM] | GI50 [9] [µM] | TGI [9] [µM] | GI50 [10] [µM] | TGI [10] [µM]
1 | C[C@@H](CO)NC(=O)c1cc(-c2ccc(Cl)cc2)nn(-c2cnn(C)c2)c1=O | 23.9 | > 100 | 22.1 | > 100 | 19.4 | 76.7 | 17.8 | 45 | 16.4 | 35.1 | 28.7 | > 100 | 27.8 | > 100 | 59.9 | > 100 | 82.6 | > 100 | 14.5 | 31.7
2 | NC(CSSCC(N)C(=O)O)C(=O)O (stereo not given) | > 100 | > 100 | > 100 | > 100 | > 100 | > 100 | > 100 | > 100 | > 100 | > 100 | > 100 | > 100 | > 100 | > 100 | > 100 | > 100 | > 100 | > 100 | > 100 | > 100
3 | CC1(C)O[C@@H]2C[C@H]3[C@@H]4C[C@H](F)C5=CC(=O)C=C[C@]5(C)[C@@]4(F)[C@@H](O)C[C@]3(C)[C@]2(C(=O)CO)O1 | – | > 100 | – | > 100 | – | > 100 | – | > 100 | – | > 100 | – | > 100 | – | > 100 | – | > 100 | – | > 100 | – | > 100
4 | C=Cn1c([N+](=O)[O-])cnc1/C=C/c1ccc(C(=O)OCCN2CCOCC2)cc1 | – | > 100 | – | > 100 | – | > 100 | – | > 100 | – | > 100 | – | > 100 | – | > 100 | – | > 100 | – | > 100 | – | > 100
5 | CC1(C)Cc2c(Br)c(Br)c(Br)c(OCC(O)CN3CCN(c4ccccn4)CC3)c2O1 (stereo not given) | 12.5 | 26.1 | 3.81 | > 100 | 5.5 | 18 | 17 | 36.9 | 15.3 | 38.2 | 16.2 | 31.3 | 5.58 | 22.5 | 4.95 | 19.2 | 33.2 | > 100 | 14.1 | 28.1
6 | CN(CCCCCl)P(=O)(OCc1ccc([N+](=O)[O-])o1)OCC1OC(n2cnc([N+](=O)[O-])c2N)C(O)C1O (stereo not given) | > 100 | > 100 | > 100 | > 100 | > 100 | > 100 | > 100 | > 100 | > 100 | > 100 | > 100 | > 100 | > 100 | > 100 | > 100 | > 100 | > 100 | > 100 | > 100 | > 100
